Reference: US9259401B2 (priority 2011, dated 2016)
Where “and” joins values, the source holds several entries; their conditions need not be identical. Identical values can stand only once. Like-named read-outs stand apart in the source and are kept apart here.

Tests used:
[1] = Comparative bioavailability study, curcumin in plasma by HPLC; type: in vivo, human; settings: for concentration at 4 hr / concentration at 6 hr / concentration at 8 hr / concentration at 24 hr: human, plasma, po, 1 gm; for Mean plasma concentration: listed as Curcumin Powder 95%; for Individual plasma concentration: single oral dose equivalent to 1 gm curcuminoids
Protocol: The bioavailability study was conducted at Amala Cancer Institute, Thrissur, Kerala on a request from the applicant. Twelve healthy subjects were recruited for the purpose of the study. […] The study design chosen was a balanced, open label, two-treatment, two-period, single dose, bioavailability study.
12 Subject were recruited for the study and were asked to avoid consumption of food containing rich turmeric powder or extract for 24 hours preceding each period. […] The following supplements were used for the purpose of the study:
Each of the supplements were administered with 240 ml water in each period.
The study design is open label, two-treatment, two-period, single dose, bioavailability study. […] Subjects were asked to avoid consumption of food containing rich turmeric powder or extract for 24 hours preceding each period. […] There was a washout period of at least 2 weeks between the doses.
Blood was drawn from each subject just prior to dosing and at 1, 2, 4, 6, 8, and 24 hours post-dose. The total blood loss for each subject was approximately 70 ml and there were totally 14 blood samples of 5 ml each time point throughout the study.
The primary efficacy variables were measured in this study were Cmax, AUCO-t and AUCO-∞ and the secondary efficacy variable were as follows Tmax, T½ and Kel. The statistical evaluation was done by Winnonlin Software 5.0.1 version. […] Tmax and T½ were also be recorded and compared for the two products.
Preparation of Sample (Spiked with Standard Solution E): The frozen plasma samples were allowed to attain the room temperature. 1000 μl of the plasma sample was pipetted out and spiked with 100 μl of spiking standard solution E. This solution was vortex for 1 minute and 3.0 ml ethyl acetate (HPLC Grade) was added to the above solutions. The solution was vortex again for 1 minute with the aid of cyclomixer and allowed to settle down at room temperature.
1.5 ml of the upper ethyl acetate layer was pipetted out and evaporated to dryness using vacuum. The dried sample was dissolved in 600 μl of methanol (HPLC Grade) using vortex mixer. This solution was filtered by 0.2 micron membrane filter paper. 100 μl of these filtered solution was injected in HPLC (Waters Alliance System with 2996 PDA detector in isocratic mode). The column used was LiChrospher 100 RP-18 (250×4.6 mm 5 μM particle size) with methanol as the mobile phase and the detection wavelength was 420 nm. To identify and quantized curcuminoids in plasma the chromatographic peaks were compared with standard solution.

Norepinephrine = assay: Biological amine levels by HPLC-ECD after 45 min: norepinephrine; type: in vivo, mice
Protocol: (§1) Test Substances: […] Animals: Male Laca mice. Test Procedures: Animals were sacrificed after 45 min of drug administration similar to the time period of behavioral observations. HPLC-ECD detector: Mobile phase—Phosphate buffer: […] • Column—ODS-3 C-18 column (250×4.6 mm I.D.; 5 μm particle size)

[2] = tested on: AC activity and c-AMP levels; settings: platelet and various brain regions, CUMS rats; cited from earlier work
Dopamine = assay: Biological amine levels by HPLC-ECD after 45 min: dopamine; type: in vivo, mice
Protocol: as §1

hippocampal neurogenesis = settings: 10 and 20 mg/kg, P.O., chronically stressed rats; cited from earlier work
[3] = individual subjects, 1 gm curcuminoids oral, listed as Curcumin Extract Powder (min 95% Curcuminoids)
[4] = dose 100 mg/kg vs fluoxetine 10 mg/kg
[5] = dose 100 mg/kg, sacrificed after 45 min, n = 5

COc1cc(C=CC(=O)CC(=O)C=Cc2ccc(O)c(OC)c2)ccc1O [Curcumin, 1,7-bis(4-hydroxy-3-methoxyphenyl)-1,6-heptadien-3,5-dione]
concentration at 4 hr ([1]; time 4 hr, 1 gm curcuminoids oral, read-out: Mean plasma concentration): 7.07 ng/mL | concentration at 4 hr ([1]; time 4 hr, 1 gm curcuminoids oral, read-out: Median plasma concentration): 7.09 ng/mL | concentration at 4 hr ([1]; time 4 hr, 1 gm curcuminoids oral, read-out: Min plasma concentration): 0.75 ng/mL | concentration at 6 hr ([1]; time 6 hr, 1 gm curcuminoids oral, read-out: Geometric Mean plasma concentration): 3.03 ng/mL | concentration at 6 hr ([1]; time 6 hr, 1 gm curcuminoids oral, read-out: Max plasma concentration): 4.87 ng/mL | concentration at 6 hr ([1]; time 6 hr, 1 gm curcuminoids oral, read-out: Mean plasma concentration): 3.23 ng/mL | concentration at 6 hr ([1]; time 6 hr, 1 gm curcuminoids oral, read-out: Median plasma concentration): 2.77 ng/mL | concentration at 6 hr ([1]; time 6 hr, 1 gm curcuminoids oral, read-out: Min plasma concentration): 2.05 ng/mL | concentration at 8 hr ([1]; time 8 hr, 1 gm curcuminoids oral, read-out: Geometric Mean plasma concentration): 6.56 ng/mL | concentration at 8 hr ([1]; time 8 hr, 1 gm curcuminoids oral, read-out: Max plasma concentration): 36.1 ng/mL | concentration at 8 hr ([1]; time 8 hr, 1 gm curcuminoids oral, read-out: Mean plasma concentration): 18.6 ng/mL | concentration at 8 hr ([1]; time 8 hr, 1 gm curcuminoids oral, read-out: Median plasma concentration): 18.6 ng/mL | concentration at 8 hr ([1]; time 8 hr, 1 gm curcuminoids oral, read-out: Min plasma concentration): 1.19 ng/mL | concentration at 24 hr ([1]; time 24 hr, 1 gm curcuminoids oral, read-out: Geometric Mean plasma concentration): 2.23 ng/mL | concentration at 24 hr ([1]; time 24 hr, 1 gm curcuminoids oral, read-out: Max plasma concentration): 11.5 ng/mL | concentration at 24 hr ([1]; time 24 hr, 1 gm curcuminoids oral, read-out: Mean plasma concentration): 4.27 ng/mL | concentration at 24 hr ([1]; time 24 hr, 1 gm curcuminoids oral, read-out: Median plasma concentration): 1.93 ng/mL | concentration at 24 hr ([1]; time 24 hr, 1 gm curcuminoids oral, read-out: Min plasma concentration): 0.53 ng/mL | AUCINF [1, 3]: 87.74 ng·h/mL and 77.46 ng·h/mL | AUCT [1, 3]: 38.31 ng·h/mL and 53.25 ng·h/mL and 31.24 ng·h/mL and 82.17 ng·h/mL and 175.60 ng·h/mL and 137.89 ng·h/mL and 198.27 ng·h/mL and 73.46 ng·h/mL | Cmax [1, 3]: 2.48 ng/mL and 7.99 ng/mL and 15.62 ng/mL and 8.39 ng/mL and 9.09 ng/mL and 11.49 ng/mL and 36.11 ng/mL and 14.94 ng/mL | Thalf [1, 3]: 11.39 h and 5.95 h and 5.21 h | Tmax [1, 3]: 1.00 h and 4.00 h and 2.00 h and 24.00 h and 8.00 h | Mean plasma concentration ([1]; time 0 hr (prior to dosing), 1 gm curcuminoids oral): 0.0000 ng/mL | Individual plasma concentration ([1]; time 0.00 hr (prior to dosing), individual subjects): 0.00 ng/mL | Mean plasma concentration ([1]; time 1 hr, 1 gm curcuminoids oral): 5.4638 ng/mL | Individual plasma concentration ([1]; time 1.00 hr, individual subjects, listed as Curcumin Extract Powder 95%): 2.48 ng/mL and 7.99 ng/mL and 0.84 ng/mL and 0.05 ng/mL and 20.58 ng/mL and 0.85 ng/mL | Mean plasma concentration ([1]; time 2 hr, 1 gm curcuminoids oral): 14.3842 ng/mL | Individual plasma concentration ([1]; time 2.00 hr, individual subjects, listed as Curcumin Extract Powder 95%): 8.39 ng/mL and 19.82 ng/mL and 14.94 ng/mL | Mean plasma concentration ([1]; time 4 hr, 1 gm curcuminoids oral): 7.0711 ng/mL | Individual plasma concentration ([1]; time 4.00 hr, individual subjects, listed as Curcumin Extract Powder 95%): 0.75 ng/mL and 4.53 ng/mL and 15.62 ng/mL and 7.09 ng/mL and 7.36 ng/mL | Mean plasma concentration ([1]; time 6 hr, 1 gm curcuminoids oral): 3.2316 ng/mL | Individual plasma concentration ([1]; time 6.00 hr, individual subjects, listed as Curcumin Extract Powder 95%): 2.05 ng/mL and 4.87 ng/mL and 2.77 ng/mL | Mean plasma concentration ([1]; time 8 hr, 1 gm curcuminoids oral): 18.6496 ng/mL | Individual plasma concentration ([1]; time 8.00 hr, individual subjects, listed as Curcumin Extract Powder 95%): 1.19 ng/mL and 36.11 ng/mL | Mean plasma concentration ([1]; time 24 hr, 1 gm curcuminoids oral): 4.2698 ng/mL | Individual plasma concentration ([1]; time 24.00 hr, individual subjects, listed as Curcumin Extract Powder 95%): 2.47 ng/mL and 1.39 ng/mL and 0.65 ng/mL and 9.09 ng/mL and 11.49 ng/mL and 0.53 ng/mL | Norepinephrine % increase w.r.t Control (Norepinephrine; dose 100 mg/kg): 67.90% | Norepinephrine % increase w.r.t Fluoxetine (Norepinephrine; [4]): 19.18% | Norepinephrine (ng/mg tissue) (Norepinephrine; [5]): 4.97 ± 0.33a ng/mg tissue | AC activity and c-AMP levels [2]: enhanced AC activity and c-AMP levels | Dopamine % increase w.r.t Control (Dopamine; dose 100 mg/kg): −20.25% | Dopamine % increase w.r.t Fluoxetine (Dopamine; [4]): −21.77% | Dopamine (ng/mg tissue) (Dopamine; [5]): 4.33 ± 0.58 ng/mg tissue | Hippocampal neurogenesis (hippocampal neurogenesis): increased hippocampal neurogenesis
